Biological target: T1, MexG (Pseudomonas aeruginosa, UniProt Q9HWH6)
T1 sequence (Q9HWH6 1-148): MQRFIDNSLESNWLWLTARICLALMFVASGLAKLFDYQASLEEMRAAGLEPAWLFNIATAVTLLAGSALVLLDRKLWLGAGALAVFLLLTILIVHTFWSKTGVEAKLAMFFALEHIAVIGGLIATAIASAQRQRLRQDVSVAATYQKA
Assay: intrinsic Trp fluorescence quenching titration
Format: binding

## CCCCCCCc1[nH]c2ccccc2c(=O)c1O [PQS, 2-heptyl-3-hydroxy-4(1H)-quinolone]
  Kd: 1000 nM
